Measured values reported in patent US11813230B2, “Composition for strengthening skin barrier, moisturizing skin or anti-aging” (COSMAX, INC., priority 2020, dated 2023).

Columns and labels:
Conditions in all cases: 37° C., 48 up to 72 hours, well color change
S. infantis (CX-4) = assay: Substance utilization (BioLOG GP2 / API 50); type: cell-based, Streptococcus infantis
Protocol: (§1) To analyze substance utilization by the isolated strains (Streptococcus pneumoniae, Streptococcus infantis, and Streptococcus mitis), tests were conducted in the following manner. BioLOG GP2 and API 50 were used in determining the substance utilization, and testing was performed using testing methods provided by Omnilog and Biomeriuse. The culturing temperature and media suitable to corresponding strains were selected, and 5 among cluster colonies incubated for 48 hours were taken and suspended in reagents before use. The inoculation amount was 150 μl. As the suspension, components of kits provided by various manufacturers were used. When the strains are yet to be inoculated, the suspension is in a transparent liquid phase. Inoculated plates and strips were incubated at 37° C. for 48 hours, and then the incubation of up to 72 hours was examined. Wells were in a transparent liquid phase at the time of inoculating, but the colors of the wells changed to purple or red, and the color-changed wells were determined to be positive.

S. pneumoniae (CX-2) = type: cell-based, Streptococcus pneumoniae
Protocol: as §1

S. mitis (CX-8) = assay: Substance utilization (BioLOG GP2 / API 50); type: cell-based, Streptococcus mitis
Protocol: as §1

| Compound | substance utilization by S. infantis (CX-4) (S. infantis (CX-4)) | substance utilization by S. pneumoniae (CX-2) (S. pneumoniae (CX-2)) | substance utilization by S. mitis (CX-8) (S. mitis (CX-8)) |
| --- | --- | --- | --- |
| Tween 40 | + | + | – |
| OC[C@H]1O[C@H](OCC2O[C@@H](O)[C@H](O)[C@@H](O)[C@@H]2O)[C@H](O)[C@@H](O)[C@H]1O (stereo partly drawn) [D-Melibiose] | – | + | – |
| Dextrin | + | + | + |
| [Cl-].[Li+] [Lithium Chloride] | – | – | + |
| Pectin | + | + | + |
| O=C1O[C@H]([C@@H](O)CO)[C@@H](O)[C@@H]1O [L-Galactonic Acid Lactone] | – | – | + |
| OC[C@H]1O[C@@H](O[C@H]2[C@H](O)[C@@H](O)[C@H](O)O[C@@H]2CO)[C@H](O)[C@@H](O)[C@@H]1O [D-Cellobiose] | + | + | + |
| [Cl-].[Na+] [1% NaCl, NaCl] | + | + | + |
| O=[Te]([O-])[O-].[K+].[K+] [Potassium Tellurite] | + | + | + |
| D-Salicin | – | – | + |
| OC[C@H]1O[C@H](OC[C@H]2O[C@H](O[C@]3(CO)O[C@H](CO)[C@@H](O)[C@@H]3O)[C@H](O)[C@@H](O)[C@@H]2O)[C@H](O)[C@@H](O)[C@H]1O [D-Raffinose] | – | + | – |
| CC(O)C(=O)[O-].[Na+] (stereo not shown) [1% Sodium Lactate, Sodium Lactate] | + | + | + |
| COc1cc(-c2ccc(-n3nc(-c4ccccc4)n[n+]3-c3ccccc3)c(OC)c2)ccc1-n1nc(-c2ccccc2)n[n+]1-c1ccccc1.[Cl-].[Cl-] [Tetrazolium Blue] | + | – | + |
| O=P(O)(O)OC[C@H]1OC(O)(CO)[C@@H](O)[C@@H]1O (stereo partly drawn) [D-Fructose-6-Po4] | – | – | + |
| OC[C@H]1O[C@H](OC[C@H]2O[C@H](OC[C@H]3O[C@H](O[C@]4(CO)O[C@H](CO)[C@@H](O)[C@@H]4O)[C@H](O)[C@@H](O)[C@@H]3O)[C@H](O)[C@@H](O)[C@H]2O)[C@H](O)[C@@H](O)[C@H]1O [Stachyose] | + | + | + |
| D-Turanose | – | + | – |
| CO[C@H]1/C=C/O[C@@]2(C)Oc3c(C)c([O-])c4c(O)c(cc(O)c4c3C2=O)NC(=O)/C(C)=C\C=C\[C@H](C)[C@H](O)[C@@H](C)[C@@H](O)[C@@H](C)[C@H](OC(C)=O)[C@@H]1C.[Na+] [Rifamycin SV] | + | – | + |
| OC[C@H]1O[C@H](O[C@H]2[C@H](O)[C@@H](O)[C@H](O)O[C@@H]2CO)[C@H](O)[C@@H](O)[C@@H]1O [D-maltose] | + | + | + |
